Laboratory results reported in ChEMBL document CHEMBL2429712, “Synthesis and cytotoxicity of (3)-3-acetyloxy-5(6)-androsten-7-one oxime and 3,5(6)-androstadien-7-one oxime” (Med Chem Res, 2013).

What was measured:
Type in all cases: functional, cell-based
MKN-28 = test: Cytotoxicity against human MKN28 cells after 44 hrs by SRB assay; settings: MKN-28, 44 h
KB = test: Cytotoxicity against human KB cells after 44 hrs by SRB assay
HeLa = test: Cytotoxicity against human HeLa cells after 44 hrs by SRB assay
MCF7 = test: Cytotoxicity against human MCF7 cells after 44 hrs by SRB assay; settings: MCF7, 44 h

| SMILES | IC50 (MKN-28) [µM] | IC50 (KB) [µM] | IC50 (HeLa) [µM] | IC50 (MCF7) [µM] |
| --- | --- | --- | --- | --- |
| COc1cccc2c1C(=O)c1c(O)c3c(c(O)c1C2=O)C[C@@](O)(C(=O)CO)C[C@@H]3O[C@H]1C[C@H](N)[C@H](O)[C@H](C)O1 [DOXORUBICIN] | 0.22 | 0.028 |  |  |
| C[C@@]12CCC[C@H]1[C@@H]1/C(=N\O)C=C3C=CCC[C@]3(C)[C@H]1CC2 | 36.1 | 28.5 | 22.2 | 19.8 |
| CC(=O)O[C@H]1CC[C@@]2(C)C(=CC(=O)[C@H]3[C@@H]4CCC[C@@]4(C)CC[C@@H]32)C1 | 48.5 | 62 | 34 | 39.5 |
| CC(=O)O[C@H]1CC[C@@]2(C)C(=C/C(=N\O)[C@H]3[C@@H]4CCC[C@@]4(C)CC[C@@H]32)C1 | 18.1 | 26 | 12.8 | 10.2 |
| C[C@@]12CCC[C@H]1[C@@H]1C(=O)C=C3C=CCC[C@]3(C)[C@H]1CC2 | 64.3 | > 80 | 62.4 | 52.2 |
